{"source": "paper PMC12455572", "about": "“Amphipathic Proline-Rich Cell Penetrating Peptides for Targeting Mitochondria” (ACS Chemical Biology, 2025)", "key": {"[1]": {"test_system": "MCF-7 cells", "assay": "Confocal microscopy of live cells: cellular uptake and intracellular localization", "type": "cell-based", "settings": "live MCF-7 cells, 1 h, 37 °C, DMEM + 1% FBS", "description": "MitoTracker Deep Red was used as a counter stain for mitochondria and Hoechst 33342 for the nucleus. […] To explore whether PPII-helicity is key for mitochondrial localization, we prepared peptide CF-Ahx-(ChaRR)3-NH2 with Arg instead of Gup residues. This control peptide features a flexible conformation as judged by CD spectroscopy (Figure S1B). […] These findings show the importance of the secondary structure of the CPP for subcellular organelle localization.\nMCF-7 cells were seeded in a 8-μwell Ibidi plate at 25′000 cells/well in DMEM (100 μL, 10% FCS) and allowed to adhere overnight. The medium was removed, the cells were washed with PBS (200 μL, 1x) and incubated with the peptide solution at 20 μM, 10 μM, 5 μM or 2.5 μM in DMEM (200 μL, 1% FCS) for 1 h at 37 °C. The medium was removed, and the cells were washed with PBS (200 μL, 2x). MitoTracker Deep Red was distributed at 20 nM in DMEM (200 μL, 1% FBS) and the cells were incubated at 37 °C for 25 min. The medium was removed, and the cells were washed with PBS (200 μL, 2x). Hoechst333342 was distributed at 2 μM in DMEM (200 μL, 1% FBS) and the cells were incubated at 37 °C for 5 min. The cells were washed with PBS (200 μL, 2x), and FluoroBrite medium (200 μL) was added. The live cells were monitored on the confocal microscope at 37 °C, 5% CO2.\nFor the cells subjected to a 24 h rest period, the FluoroBrite medium was exchanged for DMEM (200 μL, 10% FBS) after the initial imaging, and the cells were kept in this medium for 24 h. The culture medium was then exchanged for FluoroBrite DMEM, and the cells were imaged again.\nFluorescence images of cells were collected using a Nikon Eclipse T1 (inverse) microscope equipped with a Yokogawa Confocal Scanner Unit CSU-W1-T2, containing a spinning disk (50 µm). The microscope is equipped with two EMCCD Andor iXon Ultra cameras. Emission in the blue channel (405 nm) was filtered with a 450/50 bandpass filter, emission in the green channel (488 nm) was filtered with a 525/50 bandpass, and the emission in the red channel (641 nm) was filtered with a 708/75 bandpass filter. Fluorescence images were obtained using an oil-immersion objective with a magnification of 100 × 1.4 CFI Plan Apo Oil.\nEach experiment was repeated at least three times. The images acquired were adjusted using ImageJ2 software. Correlation coefficients were determined on entire images using JaCOP plugin.1 […]\nMCF-7 cells were seeded in a 8-µwell Ibidi plate at 25’000 cells/well in DMEM (100 µL, 10% FCS) and allowed to adhere overnight. The medium was removed. The cells were washed with PBS (200 µL, 1x) and incubated with the peptide solution at 20 µM, 10 µM, 5 µM, or 2.5 µM in DMEM (200 µL, 1% FCS) for 1 h at 37 °C. The medium was removed, and the cells were washed with PBS (200 µL, 2x).\nFor imaging of mitochondria, MitoTracker Deep Red was added as described in the manuscript. For imaging of endosomes/lysosomes, Ly s o Tr a c k e r Deep Red was added (200 µL, 20 nM in DMEM, 1% FBS) followed by incubation of the cells at 37 °C for 25 min. The medium was removed, and the cells were washed with PBS (200 µL, 2x). For imaging of the nucleus, Hoechst333342 was added at (200 µL, 2 µM in DMEM, 1% FBS) followed by incubation of the cells at 37 °C for 5 min. The cells were washed with PBS (200 µL, 2x), and FluoroBrite medium (200 µL) was added. The live cells were monitored on the confocal microscope […]\nMCF-7 cells were seeded in a 96-well plate at 7’500 cells/well in cell culture medium (200 µL, 10% FCS), and allowed to adhere overnight. The medium was removed, the cells were washed with PBS (100 µL, 1x) and incubated with the peptide solution at 20 µM, 10 µM, 5 µM, or 2.5 µM in DMEM (200 µL, 1% FCS) for 1 h at 37 °C. The medium was removed, and the cells were washed with PBS (100 µL, 1x). The MTT solution in DMEM (110 µL, 1.2 mM, 1% FBS) was added. The cells were incubated for 3 h at 37 °C. The […]"}, "[2]": {"test_system": "MCF-7 cells", "assay": "Flow cytometry (FACS): overall cellular uptake", "type": "cell-based", "settings": "MCF-7, 1 h, 37 °C, Figure S1D", "description": "MCF-7 cells were seeded in a 24-well plate at 150′000 cells/well in DMEM (1 mL, 10% FCS), and allowed to adhere overnight. The medium was removed, the cells were washed with PBS (250 μL, 1x) and incubated with the peptide solution at 20 μM, 10 μM, 5 μM or 2.5 μM in medium (200 μL, 1% FCS) for 1 h at 37 °C. The medium was removed, and the cells were washed with PBS (250 μL, 2x). Trypsin (100 μL, 0.05%) was added, and the cells were incubated at 37 °C for 5 min. D-PBS with Mg^2+ and Ca^2+ (300 μL, 4 °C) was added, the cells were resuspended and centrifuged for 5 min at 0.4 rcf. The supernatant was carefully removed, and the cells were resuspended in a solution of PBS containing 1.5 μM PI and 2 mM EDTA (400 μL at 4 °C). The cells were added to FACS tubes and kept on ice prior to analysis. Each sample contained 10′000 cells and was analyzed in triplicate. Each experiment was repeated three times.\nFor the experiments that included the 24 h rest period, the peptides were incubated as described above. After the 1 h incubation time, the cells were washed with PBS (250 μL, 2x), DMEM (250 μL, 10% FBS) was added, and the cells were kept at 37 °C, 5% CO2 for 24 h. For a direct comparison of the effect of a 24 h rest period, another set of peptides was incubated with the cells for 1 h. Then, cells of both sets of experiments (1 h followed by the 24 h rest period versus 1 h incubation) were washed with PBS, treated with trypsin, and prepared for FACS analysis as described above. Each sample was run in triplicate and was repeated three times. […]\nMCF-7 cells were obtained from the American Type Culture Collection (ATCC).\nThe cells were grown in a humidified 5% CO2 atmosphere at 37 °C Dulbecco’s Modified Eagle’s Medium (DMEM), high glucose, GlutaMAXTM (4 mM) supplemented with L-glutamine (4 mM), gentamicin (10 mg/L), […]\nFluorescence-Activated Cell Sorting (FACS) analyzer\nOn a BD LSRFortessa flow cytometer, CF was excited at 488 nm and monitored with 530/30 bandpass, PI was excited at 561 nm and monitored with a 610/20 bandpass. Mean fluorescence values were determined from the histograms using FlowJo 10.0.6 software while dead cells were removed according to PI staining.\nBelow is an example, CF-Ahx-(ChaZZ)3, of gating, set on untreated cells and propagated to all samples.\nEach sample was run in triplicate, and each experiment was repeated at least three times.\n(1 picture or pasted object on this page, not shown here)"}, "[3]": {"settings": "earlier work of the authors' group; ref number not given; cited from earlier work", "excerpt": "Octa-Gup adopts a polyproline II (PPII) helix in which every third amino acid is aligned (Figure E, center). As a result, the charges are organized along the three edges of the helix. […] In contrast, more flexible analogs–octaarginine and an oligoproline with spacers between the proline backbone and the guanidinium group–are trapped in endo ..."}, "[4]": {"assay": "RP-HPLC retention time as estimate of hydrophobicity (C4 column, 30 to 55% B)", "type": "physicochemical", "settings": "RP-HPLC used as estimate of hydrophobicity, A H2O/MeCN/TFA (1000/10/1), gradient 30 to 55% B, 20 min, CF-Ahx-labelled peptides", "description": "2 (A) General structure of amphipathic peptides, CF-Ahx-[XZZ]3-NH2; CF = 5(6)-Carboxyfluorescein, Ahx = aminohexanoic acid. (B) CD spectra of the peptides, recorded at 50 μM in H2O, pH 5.7. For a comparison with a spectrum of a Gup oligomer, see Figure S2. (C) Retention time of the peptides measured by RP-HPLC on a C4 column with a mobile phase from 30 to 55% of MeCN in H2O/MeCN/TFA (1000/10/1). (D) Representative confocal microscopic images of live MCF-7 cells, incubated for 1 h at 37 °C with peptide solutions at a concentration of 10 μM in DMEM + 1% FBS (left, in green). Mitochondria were stained with Deep Red MitoTracker (middle, in red) and merged images (right, orange/yellow indicating colocalization) with Hoechst33342 stain (blue) for the nucleus. TEXT PRINTED IN THE PICTURE: (C) (ValZZ)3: tr(min): 1.8 | (C) (PheZZ)3: tr(min): 2.9 | (C) (TrpZZ)3: tr(min): 3.2 | (C) (ChaZZ)3: tr(min): 5.4 DOUBTS OF THE COPYIST ABOUT THIS PICTURE: Panel C, column head: the small lowered letter after t is read as r (tr), not certain\nThe Gup residues should preorganize the peptides into a PPII helix with one hydrophobic and two cationic edges along the PPII helical peptide. Indeed, circular dichroism (CD) spectra of the peptides display the characteristic minimum and maximum at ∼206 nm and ∼224 nm, respectively, of a PPII helix (Figure B). The spectra imply that the non-proline residues in every third position are tolerated within the helical structure. We used reverse phase high performance liquid chromatography (RP-HPLC) for an estimate of the hydrophobicity of the peptides. On a C4 column using two mobile phases A (H2O/MeCN/TFA (1000/10/1)) and B (MeCN) with a gradient of 30% to 55% B, all peptides eluted over 20 min but with different retention times (Figure C). The Cha-containing peptide had the longest retention time, indicating the highest hydrophobicity within the series, followed by the Trp-, Phe-, and Val-peptides."}, "[5]": {"settings": "10 μM peptide, MitoTracker Deep Red and Hoechst 33342 counterstain"}}, "note": "“Also recorded” adds a separate entry of the source."}
{"substance": "CF-Ahx-(ChaRR)3-NH2", "values": [{"measurement": "Cellular uptake and intracellular localization (confocal microscopy)", "setting": "[1]; 5 μM peptide", "value": "low uptake"}, {"measurement": "Cellular uptake and intracellular localization (confocal microscopy)", "setting": "[1]; [5]", "value": "excluded from mitochondria"}, {"measurement": "Cellular uptake and intracellular localization (confocal microscopy)", "setting": "[1]; 10 μM peptide, MitoTracker Deep Red and Hoechst 33342 counterstain, listed as CF-Ahx-(ChaRR)3-NH2", "value": "high uptake into the cytoplasm and the nucleus, but little to no uptake into mitochondria"}, {"measurement": "Cellular uptake compared to (ChaZZ)3 (FACS)", "setting": "[2]", "value": "enhanced cellular uptake"}]}
{"substance": "octaarginine", "values": [{"measurement": "Cellular uptake and intracellular localization", "setting": "[3]", "value": "trapped in endosomes to a significant extent and exhibit reduced cellular uptake"}]}
{"substance": "CF-Ahx-(ChaZZ)2-NH2", "values": [{"measurement": "Retention time tr", "setting": "[4]", "value": 4.9, "unit": "min"}, {"measurement": "Cellular uptake and intracellular localization (confocal microscopy)", "setting": "[1]; 20 μM peptide", "value": "did not penetrate into the cells; also recorded: intracellular fluorescence was not detected"}]}
{"substance": "CF-Ahx-VZZVZZVZZ [(ValZZ)3, 9-mer CF-Ahx-(XZZ)3-NH2 with X = valine, Z = Gup]", "values": [{"measurement": "Cellular uptake and intracellular localization (confocal microscopy)", "setting": "[1]; [5]", "value": "little cellular uptake"}, {"measurement": "Cellular uptake and intracellular localization (confocal microscopy)", "setting": "[1]; 20 μM peptide", "value": "little cellular uptake"}]}
